Experimental data as given in article PMC12420824, “Discovery of a selective alpha-kinase 1 inhibitor for the rare genetic disease ROSAH syndrome” (Nature Communications, 2025).

Biological target: T1, full-length ALPK1 (Homo sapiens, UniProt Q96QP1)
T1 construct: recombinant full-length ALPK1 kinase purified from Sf9 cells; 3xFlag (C); made in house; host or cells: Sf9 insect cells (baculovirus, pFAST-BAC)
Test: Thermal shift assay (TSA)
Type: binding
Settings: pilot TSA screen / assay validation
Description: A small molecule library containing ~160,000 compounds (HTS Diversity V2) was prepared by WuXi AppTec (Shanghai, China) in 384 well thin-wall qPCR plates, with 20 nL of 10 mM compound preparations in each well. On each screening plate, 2 columns of wells were loaded with 20 nL of pure DMSO to leave spaces for negative controls (no compounds) and the positive control (AS-252424). […] The mixture was spun down at 1000 rpm for 1 min, then immediately applied to a protein melting reaction on a Roche LightCycler® 480 II Real-time PCR system, heating the mixture from 30 °C to 50 °C at the ramp rate of 0.02 °C/s while continuously acquiring the fluorescence signal. The melting temperature (Tm) of the ALPK1 protein with or without each compound was calculated using the Protein Thermal Shift™ Analysis Desktop Software v1.2 (Thermo Fisher Scientific). For positive control wells, 40 μM AS-252424 in 5 μl compound solvent was added manually and used as a positive control in the thermal shift screening.

T1 sequence (Q96QP1 whole entry): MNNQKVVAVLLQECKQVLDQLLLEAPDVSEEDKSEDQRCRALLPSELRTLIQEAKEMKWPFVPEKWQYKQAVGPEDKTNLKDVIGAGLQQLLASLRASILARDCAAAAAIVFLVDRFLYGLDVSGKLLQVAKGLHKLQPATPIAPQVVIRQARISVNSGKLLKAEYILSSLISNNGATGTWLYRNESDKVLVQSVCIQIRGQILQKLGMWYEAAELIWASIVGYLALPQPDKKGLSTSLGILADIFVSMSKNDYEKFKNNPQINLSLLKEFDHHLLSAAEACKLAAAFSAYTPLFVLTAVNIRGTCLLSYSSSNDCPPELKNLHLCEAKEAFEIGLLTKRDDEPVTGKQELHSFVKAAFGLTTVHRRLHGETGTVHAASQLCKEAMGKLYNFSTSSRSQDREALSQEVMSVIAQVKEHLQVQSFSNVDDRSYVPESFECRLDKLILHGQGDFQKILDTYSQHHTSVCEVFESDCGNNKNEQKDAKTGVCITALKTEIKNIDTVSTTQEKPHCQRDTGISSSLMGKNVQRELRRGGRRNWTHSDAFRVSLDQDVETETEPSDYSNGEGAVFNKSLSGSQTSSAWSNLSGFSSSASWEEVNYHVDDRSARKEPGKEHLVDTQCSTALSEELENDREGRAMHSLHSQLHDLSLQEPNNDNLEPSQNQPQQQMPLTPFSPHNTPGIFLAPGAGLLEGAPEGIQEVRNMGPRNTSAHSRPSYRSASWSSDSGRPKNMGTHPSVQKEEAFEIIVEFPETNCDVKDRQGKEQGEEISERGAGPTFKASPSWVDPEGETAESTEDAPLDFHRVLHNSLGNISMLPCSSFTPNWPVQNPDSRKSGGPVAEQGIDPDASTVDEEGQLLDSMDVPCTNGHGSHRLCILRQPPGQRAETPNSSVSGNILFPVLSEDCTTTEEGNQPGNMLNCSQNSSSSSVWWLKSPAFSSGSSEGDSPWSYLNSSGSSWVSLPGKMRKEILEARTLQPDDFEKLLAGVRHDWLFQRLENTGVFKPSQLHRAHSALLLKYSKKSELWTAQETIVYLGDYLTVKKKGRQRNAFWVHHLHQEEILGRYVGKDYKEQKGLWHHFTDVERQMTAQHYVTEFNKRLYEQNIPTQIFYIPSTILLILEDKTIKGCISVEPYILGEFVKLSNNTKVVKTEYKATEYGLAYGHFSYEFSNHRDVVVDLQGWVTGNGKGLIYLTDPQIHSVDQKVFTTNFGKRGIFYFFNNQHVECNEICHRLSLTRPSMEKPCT

Row | Compound | increase in melting temperature (Tm) [°C]
1 | Nc1ncnc2c1ncn2[C@@H]1O[C@H](COP(=O)(O)OP(=O)(O)OP(=O)(O)O)[C@@H](O)[C@H]1O [ATP] | 1.1

Biological target: ALPK1 (Homo sapiens, UniProt Q96QP1)
Test: TR-FRET (HTRF) kinase assay
Settings: 6.25 µM ATP, 20 nM ADP-D-heptose

Chain of ALPK1 (Q96QP1 whole entry): as above

Row | HTRF Assay (IC50) | Compound
2 | No activity | COc1ccccc1CNC(=O)Nc1nc(C(C)(C)c2cccc(Br)c2)cs1 [Compound 6]
3 | No activity | COc1ccccc1CNC(=O)Nc1nc(C2(c3ccccc3)CC2)cs1 [Compound 7]
4 | No activity | COc1ccccc1CNC(=O)Nc1nc(C2(c3ccccc3)CCC2)cs1 [Compound 8]

Same assay, conditions: read-out: HTRF Assay (IC50); 6.25 µM ATP, 20 nM ADP-D-heptose

Row | Compound | IC50 [nM]
5 | O=C(NCc1ccccc1)Nc1nc(C2(c3ccccc3)CCCC2)cs1 [Compound 1] | 5000
6 | COc1cccc2sc(NC(=O)c3c(F)cc(N4CCN(CCO)CC4)cc3F)nc12 [Compound 42] | 5310
7 | CC(C)(c1ccc(O)cc1)c1csc(NC(=O)NCc2ccc(N3CCNCC3)cc2)n1 [Compound 22] | 732
8 | Cc1cc(CNC(=O)Nc2nc(C(C)(C)c3ccc(Br)cc3)cs2)ccc1N1CCNCC1 [Compound 25] | 462
9 | COCC(C)(c1ccc(Cl)cc1)c1csc(NC(=O)NCCO)n1 (centres unmarked) [Compound 33] | 558
10 | CC(c1ccc(Br)cc1)c1csc(NC(=O)NCc2ccc(N3CCNCC3)cc2)n1 (centres unmarked) [Compound 17] | 391
11 | CC(c1ccccc1)(c1ccc(Cl)cc1)c1csc(NC(=O)c2c(F)cc(N3CCNCC3)cc2F)n1 (centres unmarked) [Compound 70] | 577
12 | C#CC(CC)(c1ccc(Br)cc1)c1csc(NC(=O)NCCO)n1 (centres unmarked) [Compound 32] | 886
13 | CCOCC(C)(c1ccccc1)c1csc(NC(=O)c2c(F)cc(N3CCNCC3)cc2F)n1 (centres unmarked) [Compound 75] | 642
14 | COc1cccc2sc(NC(=O)c3c(F)cc(NCCN(C)C)cc3F)nc12 [Compound 37] | 507
15 | COc1cccc2sc(NC(=O)c3c(F)cc(OCCO)cc3F)nc12 [Compound 40] | 560
16 | COc1ccccc1CNC(=O)Nc1nc(C(C)c2ccccc2)cs1 (centres unmarked) [Compound 9] | 3750
17 | COc1ccccc1CNC(=O)Nc1nc(C(C)(C)c2ccccc2)cs1 [Compound 4] | 2200
18 | O=C(NCc1ccc(N2CCNCC2)cc1)Nc1nc(C(CO)c2ccc(Br)cc2)cs1 (centres unmarked) [Compound 16] | 5620
19 | CC(C)(c1ccccc1)c1csc(NC(=O)NCc2ccccc2)n1 [Compound 3] | 2100
20 | O=C(Nc1nc(Cc2ccccn2)cs1)c1c(F)cc(N2CCNCC2)cc1F [Compound 60] | 1270
21 | CCC(C)(c1ccc(Br)cc1)c1csc(NC(=O)NCc2ccc(N3CCNCC3)cc2)n1 (centres unmarked) [Compound 19] | 429
22 | CC(C)(c1ccccc1)c1csc(NC(=O)NCc2ccccc2)n1 [Compound 2] | 2500
23 | O=C(Nc1nc(C2(c3ccc(Br)cc3)CCCC2)cs1)c1c(F)cc(N2CCNCC2)cc1F [Compound 63] | 437
24 | COc1ccccc1CNC(=O)Nc1nc(C(C)(C)c2ccc(Br)cc2)cs1 [Compound 5] | 1100
25 | CC(C)(c1ccc(OC(F)(F)F)cc1)c1csc(NC(=O)NCc2ccc(N3CCNCC3)cc2)n1 [Compound 10] | 1130
26 | COCCNC(=O)Nc1nc(C(C)(C)c2ccc(Br)cc2)cs1 [Compound 28] | 1130
27 | C#CC(C)(c1ccc(Cl)cc1)c1csc(NC(=O)c2c(F)ccc(OC)c2F)n1 (centres unmarked) [Compound 47] | 1550
28 | C#CC(C)(c1ccc(Cl)cc1)c1csc(NC(=O)c2c(F)cc(N3CCN(C)CC3)cc2F)n1 (centres unmarked) [Compound 51] | 425
29 | CC(C)(c1ccc(F)cc1)c1csc(NC(=O)NCc2ccc(N3CCNCC3)cc2)n1 [Compound 14] | 915
30 | COc1cccc2sc(NC(=O)c3c(F)cccc3F)nc12 [Compound 35] | 1300
31 | COc1cccc2sc(NC(=O)c3c(F)cc(N4CCC(CO)CC4)cc3F)nc12 [Compound 41] | 2280
32 | C#CC(C)(c1ccc(Cl)cc1)c1csc(NC(=O)c2c(F)cc(NCCO)cc2F)n1 (centres unmarked) [Compound 52] | 405
33 | COc1cccc2sc(NC(=O)c3c(F)cc(N4CCC(O)C4)cc3F)nc12 (centres unmarked) [Compound 39] | 3190

More lines, now with the values ahead:

Row | IC50 [nM] | Compound
34 | 48 | C#CC(C)(c1ccc(Cl)cc1)c1csc(NC(N)=O)n1 (centres unmarked) [Compound 34]
35 | 138 | CC(C)(c1ccc(Br)cc1)c1csc(NC(=O)NCc2ccc(N3CCNCC3)c(F)c2)n1 [Compound 23]
36 | 312 | C#CC(C)(c1ccc(Cl)cc1)c1csc(NC(=O)c2c(Cl)cc(N3CCNCC3)cc2Cl)n1 (centres unmarked) [Compound 53]
37 | 31 | C#CC(C)(c1ccc(Cl)cc1)c1csc(NC(=O)c2c(F)cc(N3CCC(N)C3)cc2F)n1 (centres unmarked) [Compound 54]
38 | 18 | C#CC(C)(c1ccc(OC)cc1)c1csc(NC(=O)c2c(F)cc(N3CCNCC3)cc2F)n1 (centres unmarked) [Compound 72]
39 | 38 | C#CC(C)(c1ccc(Cl)cc1)c1csc(NC(=O)c2ccc(N3CCNCC3)cc2)n1 (centres unmarked) [Compound 45]
40 | 17 | C#CC(C)(c1ccc(Cl)c(F)c1)c1csc(NC(=O)c2c(F)cc(N3CCNCC3)cc2F)n1 (centres unmarked) [Compound 67]
41 | 233 | CC(C)(c1ccc(Br)cc1)c1csc(NC(=O)NCc2ccc(N3CCNCC3)c(Cl)c2)n1 [Compound 24]
42 | 77 | C#CC(C)(c1csc(NC(=O)c2c(F)cc(N3CCNCC3)cc2F)n1)c1ccc(Cl)cc1F (centres unmarked) [Compound 65]
43 | 155 | CC(C)(c1ccc(C2CC2)cc1)c1csc(NC(=O)NCc2ccc(N3CCNCC3)cc2)n1 [Compound 12]
44 | 83 | C#CC(CC)(c1ccc(Cl)cc1)c1csc(NC(=O)c2c(F)cc(N3CCNCC3)cc2F)n1 (centres unmarked) [Compound 66]
45 | 45 | CC#CC(C)(c1ccc(Cl)cc1)c1csc(NC(=O)c2c(F)cc(N3CCNCC3)cc2F)n1 (centres unmarked) [Compound 69]
46 | 73 | C#CC(C)(c1ccc(OC(F)F)cc1)c1csc(NC(=O)c2c(F)cc(N3CCNCC3)cc2F)n1 (centres unmarked) [Compound 73]
47 | 317 | C#CC(C)(c1ccc(Cl)cc1)c1csc(NC(=O)c2c(F)cc(N3CCNC(CO)C3)cc2F)n1 (centres unmarked) [Compound 55]
48 | 130 | CC(C)(c1ccc(Br)cc1)c1csc(NC(=O)NCc2ccc(N3CCNCC3)cc2)n1 [Compound 18]
49 | 209 | COc1cccc2sc(NC(=O)c3c(F)cc(N4CCNCC4)cc3F)nc12 [Compound 43]
50 | 122 | COc1ccc(C(C)(C)c2csc(NC(=O)NCc3ccc(N4CCNCC4)cc3)n2)cc1 [Compound 20]
51 | 182 | COCC(C)(c1ccccc1)c1csc(NC(=O)c2c(F)cc(N3CCNCC3)cc2F)n1 (centres unmarked) [Compound 62]
52 | 23 | CC(C)(c1ccc(F)cc1)c1csc(NC(=O)c2c(F)cc(N3CCNCC3)cc2F)n1 [Compound 61]
53 | 125 | COc1cccc2sc(NC(=O)c3c(F)cc(N4CCC(N)C4)cc3F)nc12 (centres unmarked) [Compound 38]

Row | IC50 [nM] | Compound
54 | 130 | C#CC(C)(c1ccc(Br)cc1)c1csc(NC(N)=O)n1 (centres unmarked) [Compound 30]
55 | 13 | C#CC(C)(c1ccc(C)cc1)c1csc(NC(=O)c2c(F)cc(N3CCNCC3)cc2F)n1 (centres unmarked) [Compound 68]
56 | 14 | C#CC(C)(c1ccc(F)cc1)c1csc(NC(=O)c2c(F)cc(N3CCNCC3)cc2F)n1 (centres unmarked) [Compound 64]
57 | 236 | CC(C)(c1ccc(C#N)cc1)c1csc(NC(=O)NCc2ccc(N3CCNCC3)cc2)n1 [Compound 13]
58 | 321 | COc1cccc2sc(NC(=O)c3c(F)cc(N4CCN(Cc5ccccc5)C(=O)C4)cc3F)nc12 [Compound 36]
59 | 349 | COc1cccc2sc(NC(=O)c3c(F)cc(N4CCNC(C)C4)cc3F)nc12 (centres unmarked) [Compound 44]
60 | 70 | C#CC(C)(c1ccc(Cl)cc1)c1csc(NC(=O)c2c(F)cc(N3CCNCC3CC)cc2F)n1 (centres unmarked) [Compound 58]
61 | 161 | COc1cc(CNC(=O)Nc2nc(C(C)(C)c3ccc(Br)cc3)cs2)ccc1N1CCNCC1 [Compound 26]
62 | 167 | C#CC(C)(c1ccc(Cl)cc1)c1csc(NC(=O)c2ccc(N3CCNCC3)nc2)n1 (centres unmarked) [Compound 46]
63 | 25 | CC(c1ccc(Cl)cc1)(c1csc(NC(=O)c2c(F)cc(N3CCNCC3)cc2F)n1)C1CC1 (centres unmarked) [Compound 71]
64 | 42 | COCC(C)(c1ccc(Cl)cc1)c1csc(NC(=O)c2c(F)cc(N3CCNCC3)cc2F)n1 (centres unmarked) [Compound 74]
65 | 44 | CC(C)(c1ccc(Cl)cc1)c1csc(NC(=O)NCc2ccc(N3CCNCC3)cc2)n1 [Compound 11]
66 | 71 | C#CC(C)(c1ccc(Br)cc1)c1csc(NC(=O)NCCO)n1 (centres unmarked) [Compound 29]
67 | 270 | CC(c1ccc(Cl)cc1)c1csc(NC(=O)c2c(F)cc(N3CCNCC3)cc2F)n1 (centres unmarked) [Compound 59]
68 | 94 | C#CC(C)(c1ccc(OC)cc1)c1csc(NC(N)=O)n1 (centres unmarked) [Compound 31]
69 | 84 | COc1ccc(C(C)(C)c2csc(NC(=O)NCc3ccc(N4CCNCC4)c(F)c3)n2)cc1 [Compound 21]
70 | 284 | CC(C)(c1ccc(I)cc1)c1csc(NC(=O)NCc2ccc(N3CCNCC3)cc2)n1 [Compound 15]
71 | 151 | C#CC(C)(c1ccc(Cl)cc1)c1csc(NC(=O)c2ccc(N3CCNCC3)cc2F)n1 (centres unmarked) [Compound 48]
72 | 20 | C#CC(C)(c1ccc(Cl)cc1)c1csc(NC(=O)c2c(F)cc(N3CCNCC3CO)cc2F)n1 (centres unmarked) [Compound 56]

Same assay, conditions: read-out: IC50 in TR-FRET assay; 6.25 µM ATP, 20 nM ADP-D-heptose

Row | IC50 [nM] | Compound
73 | 11000 | COc1ccc(OC)c2sc(NC(=O)c3c(F)cccc3F)nc12 [Hit 2]
74 | 4000 | Nc1nc(C2(c3ccccc3)CCCC2)cs1 [Hit 1]
